Data reported in patent publication US8415357B2 (Canbas Co., Ltd., priority 2007, dated 2013).
Entries after “also recorded” stand apart in the source; their conditions may differ.

What was measured:
Jurkat cells = experiment: Adaptation to G2 cell cycle arrest (G1 increment) in X-ray pre-arrested Jurkat cells, flow cytometry; type: cell-based, human; settings: for IC50: Homo sapiens, Jurkat, 24 h, concentration causing half-maximal increase of % cells in G1 phase (G1 increment), Jurkat pre-arrested by 10 Gy X-ray, 24 hours with compound
Outline: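 Jurkat cells were G2-arrested by 10 Gy X-ray irradiation and held 24 h in 10% FCS/RPMI1640 at 37 °C. They were then exposed to compounds for a further 24 h. Propidium iodide staining and flow cytometry gave the %G1 cells, and IC50 (μM) is the concentration giving a half-maximal G1 increment.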

ARH-77 cells = experiment: Survival of SCID mice with xenografts of ARH-77 cells; settings: for cytotoxicity against normal cells (the mouse graft host): administered intraperitoneally or orally to SCID mice with ARH-77 xenografts
Method: For the experiment shown in FIG. 6, mice received 1.9×10^6 ARH-77 cells by intraperitoneal transplantation. […] Mice treated with dexamethasone (“Dexa”) received an intraperitoneal injection of 2 mg/kg dexamethasone. Vehicle treated control animals received intraperitoneal vehicle injection. Each injection was performed on day 1, day 2 and day 3 after transplantation of ARH-77 cells.
For the experiment shown in FIG. 7, mice received 0.8×10^6 ARH-77 cells by intraperitoneal transplantation.
For the experiment shown in FIG. 8, mice received 4.1×10^6 ARH-77 cells by intraperitoneal transplantation.

SMILES	IC50 (Jurkat cells; Table 3) [nM]	also measured
CC1=C(CCC(=O)OC(C)(C)C)C(=O)N(Nc2ccc(C(F)(F)F)c(Cl)n2)C1=O [Compound S01860, tert-butyl 3-(1-{[6-chloro-5-(trifluoromethyl)(2-pyridyl)]amino}-4-methyl-2,5-dioxoazolin-3-yl) propanoate]	–	IC50 (Jurkat cells; Table 2): 30 nM; percentage of cells in G1 phase (Jurkat cells; Jurkat cells pre-arrested at G2 by X-ray 10 Gy, 0.019 μM to 0.625 μM, 24 hours): dose-dependent increase in the percentage of cells in G1 phase; also recorded: significant increase in the number of G1 cells; first decrease in survival, days after transplantation (ARH-77 cells; 0.8×10^6 ARH-77 cells i.p., single oral administration 750 mg/kg on Day 1): 70 days; survival at 85 days (ARH-77 cells; 0.8×10^6 ARH-77 cells i.p., single oral administration 750 mg/kg on Day 1, control about 20%): ~90%; cytotoxicity against normal cells (the mouse graft host) (ARH-77 cells): no detectable cytotoxicity against normal cells
COc1cccc(C(=O)N2CCN(Cc3cc(NN4C(=O)C(C)=C(C)C4=O)nc4cc(Br)ccc34)CC2)c1 [Compound S01925, 1-{[7-bromo-4-({4-[(3-methoxyphenyl)carbonyl]piperazinyl}methyl) (2-quinolyl)]amino}-3,4-dimethylazoline-2,5-dione]	–	IC50 (Jurkat cells; Table 2): 156 nM
CC1=C(C)C(=O)N(Nc2cc(CN3CCN(C4CCN(C(=O)OC(C)(C)C)CC4)CC3)c3ccc(Br)cc3n2)C1=O [Compound S01928, tert-butyl 4-[4-({2-[(3,4-dimethyl-2,5-dioxoazolinyl)amino]-7-bromo-4-quinolyl}methyl)piperazinyl]piperidinecarboxylate]	–	IC50 (Jurkat cells; Table 2): 938 nM
CC1=C(C)C(=O)N(Nc2nc(Cl)c(C(F)(F)F)cc2Br)C1=O [Compound S01981, 1-{[3-bromo-6-chloro-5-(trifluoromethyl)(2-pyridyl)]amino}-3,4-dimethylazoline-2,5-dione]	–	IC50 (Jurkat cells; Table 2): 78 nM
CC1=C(CC(=O)OC(C)(C)C)C(=O)N(Nc2ccc(C(F)(F)F)c(Cl)n2)C1=O [Compound S02225, tert-butyl 2-(1-{[6-chloro-5-(trifluoromethyl) (2-pyridyl)]amino}-4-methyl-2,5-dioxoazolin-3-yl)acetate]	30	–
CCC(C)OC(=O)CCC1=C(C)C(=O)N(Nc2ccc(C(F)(F)F)c(Cl)n2)C1=O (stereo not drawn) [Compound S02264, Methylpropyl 3-(1-{[6-chloro-5-(trifluoromethyl) (2-pyridyl)]amino}-4-methyl-2,5-dioxoazolin-3-yl) propanoate]	40	–
CCOCC1=C(C)C(=O)N(Nc2ccc(C(F)(F)F)c(Cl)n2)C1=O [Compound S02366, 1-{[6-chloro-5-(trifluoromethyl) (2-pyridyl)]amino}-3-(ethoxymethyl)-4-methylazoline-2,5-dione]	40	–
CC1=C(COCCC(C)C)C(=O)N(Nc2ccc(C(F)(F)F)c(Cl)n2)C1=O [Compound S03405, 1-{[6-chloro-5-(trifluoromethyl)(2-pyridyl)]amino}-4-methyl-3-[(3-methylbutoxy)methyl]azoline-2,5-dione]	< 19	cytotoxicity against normal cells (the mouse graft host) (ARH-77 cells): no detectable cytotoxicity against normal cells
CCCCC1=C(C)C(=O)N(Nc2ccc(C(F)(F)F)c(Cl)n2)C1=O [Compound S03448, 3-butyl-1-{[6-chloro-5-(trifluoromethyl) (2-pyridyl)]amino}-4-methylazoline-2,5-dione]	156	–
CC1=C(CCC2(C)OCCO2)C(=O)N(Nc2ccc(C(F)(F)F)c(Cl)n2)C1=O [Compound S03456, 1-{[6-chloro-5-(trifluoromethyl) (2-pyridyl)]amino}-4-methyl-3-[2-(2-methyl (1,3-dioxolan-2-yl))ethyl]azoline-2,5-dione]	156	–
CCCCOCC1=C(C)C(=O)N(Nc2ccc(C(F)(F)F)c(Cl)n2)C1=O [Compound S03518, 3-(butoxymethyl)-1-{[6-chloro-5-(trifluoromethyl)(2-pyridyl)]amino}-4-methylazoline-2,5-dione]	20	cytotoxicity against normal cells (the mouse graft host) (ARH-77 cells): no detectable cytotoxicity against normal cells
CCCC(O)CCC1=C(C)C(=O)N(Nc2ccc(C(F)(F)F)c(Cl)n2)C1=O (stereo not drawn) [Compound S03552, 1-{[6-chloro-5-(trifluoromethyl)(2-pyridyl)]amino}-4-(3-hydroxyhexyl)-3-methylazoline-2,5-dione]	60	–
COCCOCC1=C(C)C(=O)N(Nc2ccc(C(F)(F)F)c(Cl)n2)C1=O [Compound S03742, 1-{[6-chloro-5-(trifluoromethyl)(2-pyridyl)]amino}-3-[(2-methoxyethoxy)methyl]-4-methylazoline-2,5-dione]	120	–
CCC(O)CCC1=C(C)C(=O)N(Nc2ccc(C(F)(F)F)c(Cl)n2)C1=O (stereo not drawn) [Compound S03745, 1-{[6-chloro-5-(trifluoromethyl)(2-pyridyl)]amino}-4-(3-hydroxypentyl)-3-methylazoline-2,5-dione]	60	–
CC1=C(COCCC(C)(C)C)C(=O)N(Nc2ccc(C(F)(F)F)c(Cl)n2)C1=O [Compound S03747, 3-[(3,3-dimethylbutoxy)methyl]-1-{[6-chloro-5-(trifluoromethyl) (2-pyridyl)]amino}-4-methylazoline-2,5-dione]	< 19	cytotoxicity against normal cells (the mouse graft host) (ARH-77 cells): no detectable cytotoxicity against normal cells
CC1=C(COC(C)(C)C)C(=O)N(Nc2ccc(C(F)(F)F)c(Cl)n2)C1=O [Compound S03873, 4-[(tert-butoxy)methyl]-1-{[6-chloro-5-(trifluoromethyl)(2-pyridyl)]amino}-3-methylazoline-2,5-dione]	20	–
CC1=C(CCOCC(C)C)C(=O)N(Nc2ccc(C(F)(F)F)c(Cl)n2)C1=O [Compound S03955, 1-{[6-chloro-5-(trifluoromethyl)(2-pyridyl)]amino}-4-methyl-3-[2-(2-methylpropoxy)ethyl]azoline-2,5-dione]	60	–
CC1=C(CCOCCC(C)C)C(=O)N(Nc2ccc(C(F)(F)F)c(Cl)n2)C1=O [Compound S03956, 1-{[6-chloro-5-(trifluoromethyl)(2-pyridyl)]amino}-4-methyl-3-[2-(3-methylbutoxy)ethyl]azoline-2,5-dione]	156	–
CCOCCC1=C(C)C(=O)N(Nc2ccc(C(F)(F)F)c(Cl)n2)C1=O [Compound S03960, 1-{[6-chloro-5-(trifluoromethyl)(2-pyridyl)]amino}-3-(2-ethoxyethyl)-4-methylazoline-2,5-dione]	40	–
CC1=C(COCC(C)(C)C)C(=O)N(Nc2ccc(C(F)(F)F)c(Cl)n2)C1=O [Compound S03962, 3-[(2,2-dimethylpropoxy)methyl]-1-{[6-chloro-5-(trifluoromethyl) (2-pyridyl)]amino}-4-methylazoline-2,5-dione]	< 19	–
CC1=C(COCC(C)C)C(=O)N(Nc2ccc(C(F)(F)F)c(Cl)n2)C1=O [Compound S03963, 1-{[6-chloro-5-(trifluoromethyl)(2-pyridyl)]amino}-4-methyl-3-[(2-methylpropoxy)methyl]azoline-2,5-dione]	< 19	–
CC1=C(COC(C)CC(C)C)C(=O)N(Nc2ccc(C(F)(F)F)c(Cl)n2)C1=O (stereo not drawn) [Compound S03964, 4-[(1,3-dimethylbutoxy)methyl]-1-{[6-chloro-5-(trifluoromethyl) (2-pyridyl)]amino}-3-methylazoline-2,5-dione]	40	–
CCCOCCC1=C(C)C(=O)N(Nc2ccc(C(F)(F)F)c(Cl)n2)C1=O [Compound S04034, 1-{[6-chloro-5-(trifluoromethyl)(2-pyridyl)]amino}-3-methyl-4-(2-propoxyethyl)azoline-2,5-dione]	40	–
